Test results reported in patent US20160024098A1, “HYBRID NECROPTOSIS INHIBITORS” (PRESIDENT AND FELLOWS OF HARVARD COLLEGE, priority 2013, published 2016).

System: FADD-deficient Jurkat cells
Test: necroptosis assay (TNF-α-induced necroptosis, CellTiter-Glo ATP-based viability)
Type: cell-based
Settings: FADD-deficient Jurkat cells treated with 10 ng/ml human TNFalpha for 24 hr, eleven concentrations
Procedure: Evaluation of necroptosis inhibitory activity can be performed using a FADD-deficient variant of human Jurkat T cells treated with TNF-α as previously described (Degterev et al., Nat. Chem. Biol. 1:112 (2005) and Jagtap et al., J. Med. Chem. 50: 1886 (2007)). For EC50 value determinations, cells can be treated with 10 ng/mL of human TNF-α in the presence of increasing concentration of test compounds for 24 hours followed by ATP-based viability assessment.
ATP-based viability assessment: Briefly, necroptosis activity can be performed using a FADD-deficient variant of human Jurkat T cells treated with TNF-α. For EC50 value determinations, cells (500,000 cells/mL, 100 μL per well in a 96-well plate) can be treated with 10 ng/mL of human TNF-α in the presence of increasing concentration of test compounds for 24 hours at 37° C. in a humidified incubator with 5% CO2 followed by ATP-based viability assessment. Stock solutions (30 mM) in DMSO can be prepared and then diluted with DMSO to give testing solutions, which were added to each test well. The final DMSO concentration can be 0.5%. Eleven compound test concentrations (0.030-100 μM) can be used, and each concentration can be done in duplicate.
Cell viability assessments can be performed using a commercial luminescent ATP-based assay kit (CellTiter-Glo, Promega, Madison, Wis.) according to the manufacturer's instructions. Briefly, 40 μL of the cell lysis/ATP detection reagent can be added to each well. Plates can be incubated on a rocking platform for 10 minutes at room temperature and luminescence was measured using a Wallac Victor 3 plate-reader (Perkin Elmer, Wellesley, Mass.). Cell viability can be expressed as a ratio of the signal in the well treated with TNF-α and compound to the signal in the well treated with compound alone in order to account for nonspecific toxicity. EC50 values can be calculated using nonlinear regression analysis of sigmoid dose-response (variable slope) curves from plots of log [I] verses viability values.
For necroptosis assay, FADD-deficient Jurkat cells were treated with 10 ng/ml human TNFalpha for 24 hr, followed by CellTiter-Glo viability assay (Promega). EC50 values were calculated using non-linear regression in GraphPad Prism software. Eleven concentrations of each compound were tested to generate dose response curves.

## Cc1ccc(CCCCN2C(=O)NC(Cc3c[nH]c4c(Cl)cccc34)C2=O)cc1C#Cc1cnc2cccnn12 (stereo not drawn) [Compound (29)]
  EC50: 9.9 nM

## Cc1ccc(CCCN2C(=O)NC(Cc3c[nH]c4c(Cl)cccc34)C2=O)cc1C#Cc1cnc2cccnn12 (stereo not drawn) [Compound (33)]
  EC50: 74.4 nM

## O=C1NC(Cc2c[nH]c3c(Cl)cccc23)C(=O)N1CCC#Cc1cnc2cccnn12 (stereo not drawn) [Compound (41)]
  EC50: 745 nM

## CNC(=O)c1cc(Oc2ccc(NC(=O)N3C(=O)NC(Cc4c[nH]c5c(Cl)cccc45)C3=O)c(F)c2)ccn1 (stereo not drawn) [Compound (38)]
  EC50, nM in necroptosis assay: INACTIVE

## CNC(=O)c1cc(Oc2ccc(NC(=O)CCN3C(=O)NC(Cc4c[nH]c5c(Cl)cccc45)C3=O)c(F)c2)ccn1 (stereo not drawn) [Compound (36)]
  EC50: 19300 nM

## O=C(NCCN1C(=O)NC(Cc2c[nH]c3c(Cl)cccc23)C1=O)c1cccc(C#Cc2cnc3cccnn23)c1 (stereo not drawn) [Compound (3)]
  EC50: 364 nM

## Cc1ccc(C(=O)NCCN2C(=O)NC(Cc3c[nH]c4c(Cl)cccc34)C2=O)cc1C#Cc1cnc2ccccn12 (stereo not drawn) [Compound (2)]
  EC50: 163 nM

## Cc1cc(CCCCN2C(=O)NC(Cc3c[nH]c4c(Cl)cccc34)C2=O)ccc1C#Cc1cnc2cccnn12 (stereo not drawn) [Compound (35)]
  EC50: 299 nM

## Cc1ccc(SCCN2C(=O)NC(Cc3c[nH]c4c(Cl)cccc34)C2=O)cc1C#Cc1cnc2cccnn12 (stereo not drawn) [Compound (30)]
  EC50: 80.4 nM

## Cc1ccc(C(=O)NCCN2C(=O)NC(Cc3c[nH]c4c(Cl)cccc34)C2=O)cc1C#Cc1cnc2cccnn12 (stereo not drawn) [Compound (1)]
  EC50: 200 nM

## Cc1ccc(CCN2C(=O)NC(Cc3c[nH]c4c(Cl)cccc34)C2=O)cc1C#Cc1cnc2cccnn12 (stereo not drawn) [Compound (31)]
  EC50: 136 nM

## CNC(=O)c1cc(Oc2ccc(CCCN3C(=O)NC(Cc4c[nH]c5c(Cl)cccc45)C3=O)c(F)c2)ccn1 (stereo not drawn) [Compound (37)]
  EC50: 24500 nM

## Cc1ccc(OCCN2C(=O)NC(Cc3c[nH]c4c(Cl)cccc34)C2=O)cc1C#Cc1cnc2cccnn12 (stereo not drawn) [Compound (32)]
  EC50: 134 nM

## Cc1ccc(C(=O)NCCN2C(=O)NC(Cc3c[nH]c4c(Cl)cccc34)C2=O)cc1CCc1cnc2cccnn12 (stereo not drawn) [Compound (8)]
  EC50: 1770 nM

## Cc1ccc(CCCCCN2C(=O)NC(Cc3c[nH]c4c(Cl)cccc34)C2=O)cc1C#Cc1cnc2cccnn12 (stereo not drawn) [Compound (34)]
  EC50: 185 nM
